Experimental data published in US6004983A, “N-substituted azaheterocyclic compounds” (Novo Nordisk A/S, priority 1996, dated 1999).

System: histamine induced oedema
Assay: Histamine induced paw oedema (rat histamine paw oedema test)
Type: in vivo, rat (male Sprague-Dawley)
Conditions: at 1 mg/kg, intraperitoneally 15 minutes before the anaesthetics, histamine 50 microliter, 3 mg/ml in right hind paw, swelling 20 minutes after histamine
Experimental: Compounds of formula I may be used to treat all painful, hyperalgesic and/or inflammatory conditions in which C-fibres play a pathophysiological role by eliciting neurogenic pain or inflammation, i. e.:
I. Histamine induced paw oedema
The rat histamine paw oedema test was performed essentially as described by Amann et al. (Europ. J. Pharmacol. 279, 227-231, 1995). In brief 250-300 g male Sprague-Dawley rats were anaesthetized with pentobarbital sodium, and placed on a 32 degree(Celsius) heated table. Ten minutes later histamine (50 micoliter, 3 mg/ml) was injected in the right hind paw and 20 minutes hereafter the paw swelling was determined by water plethysmography (Ugo Basile). Test compounds were administered intraperitoneally at 15 minutes before the anaesthetics.

SMILES	% oedema inhibition (inhibition of histamine induced oedema) [%]
Cl.O=C(O)C1CCN(CC=C2c3ccccc3CSc3ccccc32)CC1 [Example 2, 1-(2-(6,11-Dihydrodibenzo[b,e]thiepin-11-ylidene)-1-ethyl)-4-piperidinecarboxylic acid hydrochloride]	51
Cl.O=C(O)[C@H]1CCCCN1CC=C1c2ccccc2CCc2ccccc21 [Example 12, (R)-1-(2-(10,11-dihydro-5H-dibenzo[a,d]cyclohepten-5-ylidene)-1-ethyl)-2-piperidinecarboxylic acid hydrochloride]	49
